Results reported in US10913738B2 (BRISTOL-MYERS SQUIBB COMPANY, priority 2017, dated 2021).
pIC50: −log10 of the molar value. Where two headings read alike, the source gives them in different places.

Columns and labels:
[1] = test system: MLKL phosphorylation in HT29-L23 human colorectal adenocarcinoma cells; test: MLKL Phosphorylation High-Content Assay; type: cell-based; settings: Homo sapiens
Summary of the method: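 Cells incubated six hours at 37° C., then phospho-MLKL (S358) immunostained overnight at 4° C. and imaged by high-content microscopy. Phosphorylation quantified as mean circ-ring average intensity ratio; IC50 and Ymax from 4-parameter logistic fits.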

[2] = biological target: T1, His-GST-TVMV-hRIPK1(1-324) (Homo sapiens, UniProt Q13546); test: RIPK1 HTRF Binding Assay
T1 construct: The coding region of human RIPK1(1-324) flanked by NdeI site at 5′ end; made in house; host or cells: Spodoptera frugiperda (Sf9) insect cells, baculovirus
T1 sequence (Q13546 1-324): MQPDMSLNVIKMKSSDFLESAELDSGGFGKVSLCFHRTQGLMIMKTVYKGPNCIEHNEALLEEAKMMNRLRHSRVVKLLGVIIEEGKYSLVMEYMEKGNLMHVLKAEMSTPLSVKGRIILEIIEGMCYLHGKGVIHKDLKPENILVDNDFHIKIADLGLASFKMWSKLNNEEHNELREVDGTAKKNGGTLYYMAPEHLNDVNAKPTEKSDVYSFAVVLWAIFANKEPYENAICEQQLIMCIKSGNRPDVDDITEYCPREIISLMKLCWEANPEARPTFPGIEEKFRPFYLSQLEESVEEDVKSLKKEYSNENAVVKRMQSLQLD

[3] = x marks IC50 class 20-200 nM, read-out: pMLKL cell activity 20-200 nM
[4] = x marks IC50 class <20 nM, read-out: RIPK1 HTRF binding <20 nM
[5] = x marks IC50 class <20 nM, read-out: pMLKL cell activity <20 nM
[6] = x marks IC50 class >200 nM, read-out: pMLKL cell activity >200 nM
[7] = x marks IC50 class 20-200 nM, read-out: RIPK1 HTRF binding 20-200 nM

| SMILES | pIC50 [1, 3] | pIC50 [2, 4] | pIC50 [1, 5] | pIC50 [1, 6] | pIC50 [2, 7] |
| --- | --- | --- | --- | --- | --- |
| Cc1ncc(-c2ccn3nc(N)nc3c2)cc1C(=O)NCc1ncccc1OC1CCCC1 [Example 241, 5-{2-amino-[1,2,4]triazolo[1,5-a]pyridin-7-yl}-N-{[3-(cyclopentyloxy)pyridin-2-yl]methyl}-2-methylpyridine-3-carboxamide] | 6.70 to 7.70 | > 7.70 |  |  |  |
| Cc1ncc(-c2ccn3nc(N)nc3c2)cc1C(=O)NCc1cc(F)ccc1OC1CCCC1 [Example 242, 5-{2-amino-[1,2,4]triazolo[1,5-a]pyridin-7-yl}-N-{[2-(cyclopentyloxy)-5-fluorophenyl]methyl}-2-methylpyridine-3-carboxamide] |  | > 7.70 | > 7.70 |  |  |
| Cc1ncc(-c2ccn3nc(N)nc3c2)cc1C(=O)NCc1cccc(OCC2CC2)c1 [Example 243, 5-{2-amino-[1,2,4]triazolo[1,5-a]pyridin-7-yl}-N-{[3-(cyclopropylmethoxy)phenyl]methyl}-2-methylpyridine-3-carboxamide] |  |  |  | < 6.70 | 6.70 to 7.70 |
| Cc1ncc(-c2ccn3nc(N)nc3c2)cc1C(=O)NCc1ccccc1OC(F)(F)C(F)F [Example 244, 5-{2-amino-[1,2,4]triazolo[1,5-a]pyridin-7-yl}-2-methyl-N-{[2-(1,1,2,2-tetrafluoroethoxy)phenyl]methyl}pyridine-3-carboxamide] |  |  |  | < 6.70 | 6.70 to 7.70 |
| Cc1ncc(-c2ccn3nc(N)nc3c2)cc1C(=O)NCc1c(F)cccc1OCC1CC1 [Example 245, 5-{2-amino-[1,2,4]triazolo[1,5-a]pyridin-7-yl}-N-{[2-(cyclopropylmethoxy)-6-fluorophenyl]methyl}-2-methylpyridine-3-carboxamide] | 6.70 to 7.70 | > 7.70 |  |  |  |
| Cc1ncc(-c2ccn3nc(N)nc3c2)cc1C(=O)NCc1cccc(OC(F)(F)F)c1 [Example 246, 5-{2-amino-[1,2,4]triazolo[1,5-a]pyridin-7-yl}-2-methyl-N-{[3-(trifluoromethoxy)phenyl]methyl}pyridine-3-carboxamide] |  |  |  | < 6.70 | 6.70 to 7.70 |
| Cc1ncc(-c2ccn3nc(N)nc3c2)cc1C(=O)NCc1c(F)cccc1OC1CCCC1 [Example 247, 5-{2-amino-[1,2,4]triazolo[1,5-a]pyridin-7-yl}-N-{[2-(cyclopentyloxy)-6-fluorophenyl]methyl}-2-methylpyridine-3-carboxamide] |  | > 7.70 | > 7.70 |  |  |
| Cc1ncc(-c2ccn3nc(N)nc3c2)cc1C(=O)NCc1ccccc1OCC1CCC1 [Example 248, 5-{2-amino-[1,2,4]triazolo[1,5-a]pyridin-7-yl}-N-{[2-(cyclobutylmethoxy)phenyl]methyl}-2-methylpyridine-3-carboxamide] |  | > 7.70 | > 7.70 |  |  |
| Cc1ncc(-c2ccn3nc(N)nc3c2)cc1C(=O)NCc1ccccc1OC1CCCC1 [Example 249, 5-{2-amino-[1,2,4]triazolo[1,5-a]pyridin-7-yl}-N-{[2-(cyclopentyloxy)phenyl]methyl}-2-methylpyridine-3-carboxamide] |  | > 7.70 | > 7.70 |  |  |
| Cc1ncc(-c2ccn3nc(N)nc3c2)cc1C(=O)NCc1ccccc1OCC1CC1 [Example 250, 5-{2-amino-[1,2,4]triazolo[1,5-a]pyridin-7-yl}-N-{[2-(cyclopropylmethoxy)phenyl]methyl}-2-methylpyridine-3-carboxamide] | 6.70 to 7.70 | > 7.70 |  |  |  |
| [2H]C([2H])(NC(=O)c1cc(-c2ccn3nc(N)nc3c2)cnc1C)c1cc(OC(F)(F)F)ccc1F [Example 252, 5-{2-amino-[1,2,4]triazolo[1,5-a]pyridin-7-yl}-N-{[2-fluoro-5-(trifluoromethoxy)phenyl](deutero)methyl}-2-methylpyridine-3-carboxamide] |  | > 7.70 | > 7.70 |  |  |
| [2H]C([2H])(NC(=O)c1cc(-c2ccn3nc(N)nc3c2)cnc1C)c1cc(F)cc(F)c1OCC1CC1 [Example 253, 5-{2-amino-[1,2,4]triazolo[1,5-a]pyridin-7-yl}-N-{[2-(cyclopropylmethoxy)-3,5-difluorophenyl](deutero)methyl}-2-methylpyridine-3-carboxamide] |  | > 7.70 | > 7.70 |  |  |
| Cc1ncc(-c2ccn3nc(N)nc3c2)cc1C(=O)NCc1cc(C(F)(F)F)ccc1Cl [Example 254] | 6.70 to 7.70 | > 7.70 |  |  |  |
| Cc1ncc(-c2ccn3nc(N)nc3c2)cc1C(=O)NC(C)c1cc(OC(F)(F)F)ccc1F (centres unmarked) [Example 255, 5-{2-amino-[1,2,4]triazolo[1,5-a]pyridin-7-yl}-N-{1-[2-fluoro-5-(trifluoromethoxy)phenyl]ethyl}-2-methylpyridine-3-carboxamide] | 6.70 to 7.70 | > 7.70 |  |  |  |
| Cc1ncc(C(=O)NCc2cc(OC(F)(F)F)ccc2F)cc1-c1ccn2nc(N)nc2c1 [Example 256, 5-{2-amino-[1,2,4]triazolo[1,5-a]pyridin-7-yl}-N-{[2-fluoro-5-(trifluoromethoxy)phenyl]methyl}-6-methylpyridine-3-carboxamide] |  |  |  | < 6.70 | 6.70 to 7.70 |
| Cc1ncc(C(=O)NCc2c(F)cc(F)cc2OCC2CCCC2)cc1-c1ccn2nc(N)nc2c1 [Example 257, 5-{2-amino-[1,2,4]triazolo[1,5-a]pyridin-7-yl}-N{[2-(cyclopentylmethoxy)-4,6-difluorophenyl]methyl}-6-methylpyridine-3-carboxamide] |  |  |  | < 6.70 | 6.70 to 7.70 |
| Cc1ncc(C(=O)NCc2cccnc2OCC2CCCC2)cc1-c1ccn2nc(N)nc2c1 [Example 258, 5-{2-amino-[1,2,4]triazolo[1,5-a]pyridin-7-yl}-N-{[2-(cyclopentylmethoxy)pyridin-3-yl]methyl}-6-methylpyridine-3-carboxamide] |  | > 7.70 |  | < 6.70 |  |
| Cc1ncc(C(=O)NCc2cc(F)cc(F)c2OCC2CCCC2)cc1-c1ccn2nc(N)nc2c1 [Example 259, 5-{2-amino-[1,2,4]triazolo[1,5-a]pyridin-7-yl}-N-{[2-(cylcopentylmethoxy)-3,5-difluorophenyl]methyl}-6-methylpyridine-3-carboxamide] | 6.70 to 7.70 | > 7.70 |  |  |  |
| Cc1ncc(C(=O)NCc2cc(F)cc(F)c2OCC2CC2)cc1-c1ccn2nc(N)nc2c1 [Example 260, 5-{2-amino-[1,2,4]triazolo[1,5-a]pyridin-7-yl}-N-{[2-(cyclopropylmethoxy)-3,5-difluorophenyl]methyl}-6-methylpyridine-3-carboxamide] |  | > 7.70 | > 7.70 |  |  |
| Cc1ncc(C(=O)NCc2cccnc2OCC2CCC2)cc1-c1ccn2nc(N)nc2c1 [Example 261, 5-{2-amino-[1,2,4]triazolo[1,5-a]pyridin-7-yl}-N-{[2-(cyclobutylmethoxy)pyridin-3-yl]methyl}-6-methylpyridine-3-carboxamide] |  |  |  | < 6.70 | 6.70 to 7.70 |
| Cc1ncc(C(=O)NCc2cc(F)ccc2OCC2CCCC2)cc1-c1ccn2nc(N)nc2c1 [Example 262, 5-{2-amino-[1,2,4]triazolo[1,5-a]pyridin-7-yl}-N-{[2-(cyclopentylmethoxy)-5-fluorophenyl]methyl}-6-methylpyridine-3-carboxamide] | 6.70 to 7.70 | > 7.70 |  |  |  |
| Cc1ncc(C(=O)NCc2ccccc2OCC2CCCC2)cc1-c1ccn2nc(N)nc2c1 [Example 263, 5-{2-amino-[1,2,4]triazolo[1,5-a]pyridin-7-yl}-N-{[2-(cyclopentylmethoxy)phenyl]methyl}-6-methylpyridine-3-carboxamide] | 6.70 to 7.70 | > 7.70 |  |  |  |
